Entries after “also recorded” stand apart in the source; their conditions may differ. Where two headings read alike, the source gives them in different places. No end group written: not given here.
Experiments:
PSA [1] = assay: MIC determination by broth microdilution; type: cell-based, Pseudomonas syringae pv. actinidiae; conditions: PSA 10^5 CFU/mL, LB, 28° C., 24 h, OD600
Method: The MIC was determined by a broth microdilution method (Mishra et al., 2017, Individual and combined effects of engineered peptides and antibiotics on Pseudomonas aeruginosa biofilms). PSA cells in a logarithmic growth phase were diluted to 10^5 colony forming units (CFU)/mL with an LB liquid medium (including 10 g/L peptone, 5 g/L yeast extract powder, and 10 g/L NaCl), and added into a 96-well microplate that was preloaded with different concentrations of the AMP synthesized in Example 1 (1.56 μg/mL to 200 μg/mL) or agricultural streptomycin (AS) (125 μg/mL to 4,000 μg/mL). After incubation at 28° C. for 24 h, an absorbance at 600 nm (OD600) of each sample was measured using a Multiskan FC microplate reader (Thermo Fisher Scientific, Waltham, USA); while sterile water was used as a control.

PSA [2] = type: cell-based, Pseudomonas syringae pv. actinidiae
Method: The samples in the wells with a concentration of greater than 1 MIC during the MIC determination in step 1 were spread on an LB agar plate (including 10 g/L peptone, 5 g/L yeast extract powder, 10 g/L NaCl, and 15 g/L agar), and the colonies were counted after incubation at 28° C. for 48 h.

PSA [3] = assay: Control effect and bacterial load on kiwifruit leaves inoculated with PSA; type: in vivo, Pseudomonas syringae pv. actinidiae on kiwifruit; conditions: 1 MIC; for disease control effect: kiwifruit leaves inoculated with PSA, lesion area vs control; for bacterial load in leaves: kiwifruit leaves, 96 h
Method: The method of Bai et al. (2022, Application of phage therapy against red-fleshed kiwifruit canker) was selected to evaluate a control effect of the AMP synthesized in Example 1 on kiwifruit leaves inoculated with PSA. The leaves were injured with a syringe needle and covered with a filter paper (ϕ=1 cm) containing 50 μL of PSA (10^8 CFU/mL). After 2 h, 1 MIC of AMP or AS was added; while the PBS was used as a control. The kiwifruit plants were cultured for 96 h at 25±1° C., 70±5% relative humidity (RH), and a photoperiod of 16 h: 8 h. The lesion area and the number of colonies were counted every 48 h, and the disease control effect (%) was calculated using the following formula: Control effect (%)=(1−Lesion areatreatment/Lesion areacontrol)×100%
Bacterial load in leaves was determined according to a colony count method of Barrett-Manako et al. (2021, Real-time PCR and droplet digital PCR are accurate and reliable methods to quantify Pseudomonas syringae pv. actinidiae biovar 3 in kiwifruit infected plantlets). Leaves were collected, washed with sterile water, and homogenized with PBS. A homogenate was inoculated into a King's B solid medium (supplemented with nitrofurantoin at 12.5 μg/mL and cephalexin at 40 μg/mL). After incubation at 28° C. for 48 h, the colonies were counted to calculate lg CFU/cm^2. Colonies were confirmed by PCR using specific primers for the 16S-23SrDNA-ITS sequence of PSA (Table 1), and sequenced.

PSA cells [4] = assay: ROS level (DCFH-DA fluorescence); type: cell-based, Pseudomonas syringae pv. actinidiae
Method: The reactive oxygen species (ROS) level of PSA treated with the AMP synthesized in Example 1 was evaluated using a ROS detection kit (LabLead, Beijing, China). PSA cells (10^7 CFU/mL) were incubated with different concentrations of the AMPs (0.5 MIC to 2 MICs) at 28° C. for 2 h. At the same time, sterile water was set as a control. The cells were resuspended in PBS and then incubated with 10 μM of 2′,7′-dichlorodihydrofluorescein diacetate (DCFH-DA) for 30 min at 28° C. Fluorescence intensity was measured at excitation/emission wavelengths of 485 nm/525 nm using a SpectraMax i3 microplate reader (Molecular Devices, San Jose, USA).

[5] = system: defense genes (PR1 and PR-10); assay: RT-qPCR of defense genes in kiwifruit leaves; type: in vivo; conditions: PSA-inoculated kiwifruit leaves, 48 h
Method: The expression of defense genes (PRI and PR-10) in kiwifruit leaves was detected by RT-qPCR. The leaves were collected 48 h after AMP inoculation with PSA, and a total RNA was extracted from three leaf discs for each replicate, and cDNA was synthesized. The RT-qPCR was conducted using the method in Example 4. Actin was used as a reference gene. […] A relative expression level of genes was calculated by a 2-AACT method.

PSA genomic DNA = assay: DNA gel retardation; type: binding, Pseudomonas syringae pv. actinidiae; conditions: 200 ng DNA, 15.63 ng to 1,000 ng AMP, 28° C., 30 min
Method: A PSA genomic DNA (200 ng) was incubated with different amounts of the AMP (15.63 ng to 1,000 ng) synthesized in Example 1 at 28° C. for 30 min. At the same time, sterile water was set as a control. After electrophoresis, DNA gel retardation was observed under UV illumination using a Bio-Rad Universal Hood II Gel Doc XR system (Hercules, USA).

PSA cells [6] = assay: Calcium ion leakage of PSA cells; type: cell-based, Pseudomonas syringae pv. actinidiae; conditions: after 120 min of treatment; increased from 8.70 μM
PSA cells [7] = assay: Membrane depolarization with DiSC3(5); type: cell-based, Pseudomonas syringae pv. actinidiae; conditions: 1 MIC, 28° C., 30 min
Method: Membrane depolarization was measured using a membrane potential-sensitive cyano dye 3,3′-dipropylthiadicarbocyanine iodide (DiSC3(5)) according to a method of Juba et al. (2015, Helical cationic antimicrobial peptide length and its impact on membrane disruption). PSA cells (10^7 CFU/mL) were suspended in a PBS containing 50 μg/mL of the DiSC3(5) and added to a black 96-well microplate. The microplate was incubated in a SpectraMax i3 microplate reader (Molecular Devices, San Jose, USA), and monitored until fluorescence leveled off. 1 MIC of the AMP synthesized in Example 1 was added and incubated at 28° C. for 30 min; while the PBS was used as a control. The fluorescence intensity of each sample was measured at excitation/emission wavelengths of 622 nm/670 nm, respectively.

PSA cells [8] = assay: SEM and TEM observation of PSA cells; type: cell-based, Pseudomonas syringae pv. actinidiae; conditions: 1 MIC, 2 h, 28° C.
Method: Scanning electron microscopy (SEM) and Transmission electron microscopy (TEM) were used to observe the morphological and intracellular changes of the PSA cells treated with the AMP synthesized in Example 1. PSA cells (10^7 CFU/mL) were incubated with the AMP (1 MIC) for 2 h at 28° C.; while sterile water was used as a control. For SEM, cell samples were prepared according to a protocol of Juba et al. (2015, Helical cationic antimicrobial peptide length and its impact on membrane disruption) and observed under a Hitachi SU8100 SEM (Tokyo, Japan). For TEM, cell samples were prepared according to a method of Nguyen et al. (2021, Comparison of two transmission electron microscopy methods to visualize drug-induced alterations of gram-negative bacterial morphology) and observed under a Hitachi HT-7700 TEM (Tokyo, Japan).

PSA [9] = assay: Drug resistance of PSA to the AMP (repeated subculture, MIC change); type: cell-based, Pseudomonas syringae pv. actinidiae; conditions: repeated treatment at 0.75, 1 and 1.25 MIC, 14 d
Method: Microbial resistance was determined according to a method of Steczko et al. (2009, Microbial inactivation properties of a new antimicrobial/antithrombotic catheter lock solution (citrate/methylene blue/parabens)). 10^5 CFU/mL of a PSA bacteria solution was treated with AMPs at final concentrations of 0.75 MIC, 1 MIC, and 1.25 MIC. After 24 h of incubation, the MIC was determined by microdilution assay. Subculture and MIC determination were conducted by the same method every day for a total of 14 d. The drug resistance of PSA was evaluated by observing changes of the MIC.

[10] = system: intracellular esterase of PSA; assay: Intracellular esterase activity (FDA fluorescence); type: cell-based, Pseudomonas syringae pv. actinidiae; conditions: 1 MIC, at 120 min
Method: The intracellular esterase activity of PSA was measured with fluorescein diacetate (FDA). PSA cells (10^7 CFU/mL) were added to a black 96-well microplate preloaded with 1 MIC of the AMP synthesized in Example 1. The cells in each well were mixed with 10 mM of the FDA and incubated at 28° C. for 10 min. Fluorescence intensity was measured at excitation wavelengths of 480 nm/530 nm using the SpectraMax i3 microplate reader (Molecular Devices, San Jose, USA), respectively.

PSA cell membrane = assay: Membrane permeabilization (OD260 of filtrates); type: cell-based, Pseudomonas syringae pv. actinidiae; conditions: 1 MIC, 120 min, relative to Triton X-100; increased from 2.61%
Method: Membrane permeabilization was determined according to a method of Dang et al. (2020, Antimicrobial peptides from the edible insect Musca domestica and their preservation effect on chilled pork). PSA cells (10^7 CFU/mL) in a logarithmic growth phase were incubated with 1 MIC of the AMP synthesized in Example 1 at 28° C. for 120 min. The resulting cultures were filtered through a 0.22 μm membrane and OD260 value of the filtrates were determined. 10 mM of a phosphate-buffered saline (PBS) and Triton X-100 were used as negative and positive controls, respectively. The membrane permeabilization was calculated according to the following formula: Permeabilization (%)=(OD260 AMP/OD260 Triton)×100%.

[11] = system: DNA replication (dnaA and dnaB) and DNA repair (recA and recN) genes; assay: RT-qPCR of DNA replication and repair genes; type: cell-based, Pseudomonas syringae pv. actinidiae; conditions: 1 MIC, 28° C., 2 h
Method: PSA cells (10^7 CFU/mL) were incubated with 1 MIC of the AMP synthesized in Example 1 at 28° C. for 2 h. At the same time, sterile water was set as a control. A total RNA was extracted, and cDNA was synthesized using PrimeScript RT Master Mix (Takara, Dalian, China). The expression of DNA replication (dnaA and dnaB) and DNA repair (recA and recN) genes were detected by reverse transcription-quantitative PCR (RT-qPCR). The RT-qPCR was conducted with a mixed system including 10 μL of Masser Mix (Tsinke, Beijing, China), 0.8 μL of each primer (0.5 μM), 0.4 μL (200 ng) of the cDNA, and 8 μL of water. The reaction was conducted by: at 50° C. for 2 min; initial denaturation at 95° C. for 2 min; and at 95° C. for 15 sec, at 55° C. for 30 sec, and at 72° C. for 30 sec, conducting 40 cycles. 16S rRNA was used as a reference gene. A relative expression level of genes was calculated by a 2-AACT method.

PSA [12] = type: cell-based, Pseudomonas syringae pv. actinidiae; conditions: 3 h
Method: The EC50 was determined according to a method of Gupta et al. (2015, Short, synthetic cationic peptides have antibacterial activity against Mycobacterium smegmatis by forming pores in membrane and synergizing with antibiotics). The PSA cells (10^5 CFU/mL) in a logarithmic growth phase were added to a 96-well microplate that was preloaded with different concentrations of the AMP synthesized in Example 1 (0.39 μg/mL to 12.5 μg/mL) or AS (62.5 μg/mL to 2,000 μg/mL), and then incubated at 28° C. for 3 h. A serially diluted mixture was spread on the LB agar plate, incubated for 48 h, and the colonies were counted. The EC50 was calculated by plotting percent killing as a function of the lg of AMP concentrations.

With “agricultural streptomycin [AS, reference compound]” the MIC (PSA [1]) was 500 µg/mL, the MBC (PSA [2]; LB agar plate, 28° C., 48 h colony count) was 1,000 μg/mL and the disease control effect (PSA [3]) was 55.80%. The “bacterial load in leaves” value (PSA [3]) was 4.48 lg CFU/cm^2.

For “WWKLLRKL-NH2 [AMP, Trp-Trp-Lys-Leu-Leu-Arg-Lys-Leu-NH2]”, the “ROS fluorescence intensity, dose dependence” value (PSA cells [4]; 0.5 MIC to 2 MICs) was “increased in a dose-dependent manner”, the “ROS fluorescence intensity relative to control” value (PSA cells [4]; 2 MIC, 28° C., 2 h) was 4.22 times that of the control and the “expression level of PR 1 relative to control” value [5] was 1.38 times that of the control group. For the same substance, the “expression level of PR-10 relative to control” value [5] was 1.74 times that of the control, the “binding with PSA genomic DNA (gel retardation)” value (PSA genomic DNA) was “bind to the genomic DNA of PSA and retard the migration of DNA in a concentration-dependent manner” and the calcium ion leakage (PSA cells [6]) was 60.87 µM. For the same substance, the “membrane depolarization (DiSC3(5) fluorescence)” value (PSA cells [7]) was “significantly induced an increase in DiSC3 (5) fluorescence”, the “cell morphology and intracellular changes (SEM/TEM)” value (PSA cells [8]) was “notable alterations in cell morphology” and the “drug resistance of PSA (change of MIC)” value (PSA [9]) was “no drug resistance of PSA to AMP is observed; also recorded: no change was found in the MIC”. For the same substance, the “esterase (FDA) fluorescence intensity relative to control” value [10] was 0.34 times that of the control, the “permeabilization of the PSA cell membrane” value (PSA cell membrane) was 11.44% and the MIC (PSA [1]) was 3.13 µg/mL. For the same substance, the “reduction of dnaA expression level vs control” value [11] was 80.64%, the “reduction of dnaB expression level vs control” value [11] was 57.51% and the “reduction of recA expression level vs control” value [11] was 35.28%. For the same substance, the “reduction of recN expression level vs control” value [11] was 39.23%, the MBC (PSA [2]; 48 h) was 6.25 µg/mL and the EC50 (PSA [12]) was 1.67 µg/mL. The disease control effect (PSA [3]) was 70.53% and the “bacterial load in leaves” value (PSA [3]) was 2.95 lg CFU/cm^2.
